# The CombiSolv-Exp solvation set (Vermeire and Green 2021)
# Test: solvent given as SMILES
# [1] = in CCCCCCCCC=CCCCCCCCC(=O)OCC(COC(=O)CCCCCCCC=CCCCCCCCC)OC(=O)CCCCCCCC=CCCCCCCCC
smiles,measurement,setting,value
CCOC(=O)CC,"solvation free energy, 298 K",in CCCCCCCC,-4.11 kcal/mol
same,"solvation free energy, 298 K",in CCCCCCCCCCCCCCCC,-3.91 kcal/mol
same,"solvation free energy, 298 K",in CCCCCCCCO,-4.3 kcal/mol
same,"solvation free energy, 298 K",in CCOCCO,-4.58 kcal/mol
same,"solvation free energy, 298 K",in CN1CCCC1=O,-4.49 kcal/mol
same,"solvation free energy, 298 K",in O,-2.7 kcal/mol
same,"solvation free energy, 298 K",in O=CN1CCOCC1,-4.3 kcal/mol
same,"solvation free energy, 298 K",in [2H]O[2H],-2.8 kcal/mol
CCCCC(=O)OCCC(C)CCC=C(C)C (configuration not stated),"solvation free energy, 298 K",in O,-2.51 kcal/mol
CC(=O)C(C)O (configuration not stated),"solvation free energy, 298 K",in O,-4.29 kcal/mol
c1ccc2c(c1)oc1ccccc12,"solvation free energy, 298 K",in CC(=O)N(C)C,-9.94 kcal/mol
same,"solvation free energy, 298 K",in CN1CCCC1=O,-10 kcal/mol
same,"solvation free energy, 298 K",in O,-3.31 kcal/mol
Clc1ccc2c(c1)Oc1ccc(Cl)cc1O2,"solvation free energy, 298 K",in O,-3.67 kcal/mol
CCCCCC=CCC=CCCCCCCCC(=O)OC,"solvation free energy, 298 K",in O,-2.48 kcal/mol
COCOC,"solvation free energy, 298 K",in ClC(Cl)(Cl)Cl,-3.66 kcal/mol
same,"solvation free energy, 298 K",in ClC(Cl)Cl,-3.99 kcal/mol
same,"solvation free energy, 298 K",in O,-2.95 kcal/mol
same,"solvation free energy, 298 K",in S=C=S,-3.28 kcal/mol
O=C(O)c1ccc(Br)cc1,"solvation free energy, 298 K",in CN(C)C=O,-12.3 kcal/mol
same,"solvation free energy, 298 K",in O,-6.67 kcal/mol
O=C(c1ccccc1[N+](=O)[O-])N(O)c1ccccc1,"solvation free energy, 298 K",in O,-14.5 kcal/mol
COC(CC#N)(OC)OC,"solvation free energy, 298 K",in O,-6.4 kcal/mol
O=[N+]([O-])c1cccc(Cl)c1Cl,"solvation free energy, 298 K",in C1CCCCC1,-8.4 kcal/mol
same,"solvation free energy, 298 K",in CC(C)O,-8.56 kcal/mol
same,"solvation free energy, 298 K",in CCCCCC,-7.97 kcal/mol
same,"solvation free energy, 298 K",in CCCCCCC,-8.07 kcal/mol
same,"solvation free energy, 298 K",in CCCCO,-8.71 kcal/mol
same,"solvation free energy, 298 K",in CCCO,-8.65 kcal/mol
same,"solvation free energy, 298 K",in CCOC(C)=O,-9.93 kcal/mol
same,"solvation free energy, 298 K",in ClC(Cl)(Cl)Cl,-9.46 kcal/mol
same,"solvation free energy, 298 K",in O,-4.22 kcal/mol
CNC(=O)c1ccccc1,"solvation free energy, 298 K",in CC(C)CC(C)(C)C,-7.63 kcal/mol
CCC(C)CCC(C)C (configuration not stated),"solvation free energy, 298 K",in CCCO,-4.64 kcal/mol
Nc1ccc(Cc2ccc(N)cc2)cc1,"solvation free energy, 298 K",in O,-16.3 kcal/mol
Cc1ccc(Br)cc1,"solvation free energy, 298 K",in O,-1.39 kcal/mol
CCCc1ccc(O)c(OC)c1,"solvation free energy, 298 K",in O,-5.26 kcal/mol
CC(C)COC=O,"solvation free energy, 298 K",in O,-2.22 kcal/mol
CC(=O)OC1(C(C)C)CC=C(C)CC1 (configuration not stated),"solvation free energy, 298 K",in O,-3.25 kcal/mol
CC(C(=O)O)c1ccc(N2CC=CC2)c(Cl)c1 (configuration not stated),"solvation free energy, 298 K",in O,-11.3 kcal/mol
c1ccc(N=Nc2ccccc2)cc1,"solvation free energy, 298 K",[1],-11.2 kcal/mol
same,"solvation free energy, 298 K",in O,-4.82 kcal/mol
CCCC[N+](=O)[O-],"solvation free energy, 298 K",in CCCCCC,-4.64 kcal/mol
same,"solvation free energy, 298 K",in O,-3.1 kcal/mol
CNC(=O)Oc1cccc2ccccc12,"solvation free energy, 298 K",[1],-12.6 kcal/mol
C1COCCOCCOCCOCCO1,"solvation free energy, 298 K",in Cc1cccc(C)c1,-10.9 kcal/mol
same,"solvation free energy, 298 K",in O,-12.8 kcal/mol
